{"source": "ChEMBL document CHEMBL1129077", "about": "(J Med Chem, 1996)", "key": {"[1]": {"target": "T1, Transient receptor potential cation channel subfamily V member 1 (Rattus norvegicus, UniProt O35433)", "T1 sequence (O35433 whole entry)": "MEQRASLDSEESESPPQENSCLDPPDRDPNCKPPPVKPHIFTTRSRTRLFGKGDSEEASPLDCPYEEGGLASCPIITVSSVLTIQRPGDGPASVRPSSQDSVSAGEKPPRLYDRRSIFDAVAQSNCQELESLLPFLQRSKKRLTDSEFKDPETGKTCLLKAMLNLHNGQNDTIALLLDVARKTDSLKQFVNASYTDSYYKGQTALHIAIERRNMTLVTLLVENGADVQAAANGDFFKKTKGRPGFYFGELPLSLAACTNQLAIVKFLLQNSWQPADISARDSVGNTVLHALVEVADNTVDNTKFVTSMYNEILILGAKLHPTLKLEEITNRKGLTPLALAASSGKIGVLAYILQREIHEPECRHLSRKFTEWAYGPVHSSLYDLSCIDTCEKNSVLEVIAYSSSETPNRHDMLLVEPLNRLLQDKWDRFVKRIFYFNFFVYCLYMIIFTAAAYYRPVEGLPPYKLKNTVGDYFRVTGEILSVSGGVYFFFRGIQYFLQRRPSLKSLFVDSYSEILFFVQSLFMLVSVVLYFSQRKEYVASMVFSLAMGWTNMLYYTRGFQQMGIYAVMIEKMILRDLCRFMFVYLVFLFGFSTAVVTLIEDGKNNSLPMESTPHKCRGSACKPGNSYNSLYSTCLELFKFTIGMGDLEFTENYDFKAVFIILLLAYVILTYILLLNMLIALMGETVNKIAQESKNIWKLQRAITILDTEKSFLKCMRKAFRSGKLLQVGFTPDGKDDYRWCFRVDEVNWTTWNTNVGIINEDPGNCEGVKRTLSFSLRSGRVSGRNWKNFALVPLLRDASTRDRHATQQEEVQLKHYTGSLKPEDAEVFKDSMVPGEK", "assay": "Displacement of [3H]RTX from Vanilloid receptor in Rat spinal cord membranes", "type": "cell membranes, Membrane"}, "[2]": {"target": "T2, Transient receptor potential cation channel subfamily V member 1 (Homo sapiens, UniProt Q8NER1)", "T2 sequence (Q8NER1 whole entry)": "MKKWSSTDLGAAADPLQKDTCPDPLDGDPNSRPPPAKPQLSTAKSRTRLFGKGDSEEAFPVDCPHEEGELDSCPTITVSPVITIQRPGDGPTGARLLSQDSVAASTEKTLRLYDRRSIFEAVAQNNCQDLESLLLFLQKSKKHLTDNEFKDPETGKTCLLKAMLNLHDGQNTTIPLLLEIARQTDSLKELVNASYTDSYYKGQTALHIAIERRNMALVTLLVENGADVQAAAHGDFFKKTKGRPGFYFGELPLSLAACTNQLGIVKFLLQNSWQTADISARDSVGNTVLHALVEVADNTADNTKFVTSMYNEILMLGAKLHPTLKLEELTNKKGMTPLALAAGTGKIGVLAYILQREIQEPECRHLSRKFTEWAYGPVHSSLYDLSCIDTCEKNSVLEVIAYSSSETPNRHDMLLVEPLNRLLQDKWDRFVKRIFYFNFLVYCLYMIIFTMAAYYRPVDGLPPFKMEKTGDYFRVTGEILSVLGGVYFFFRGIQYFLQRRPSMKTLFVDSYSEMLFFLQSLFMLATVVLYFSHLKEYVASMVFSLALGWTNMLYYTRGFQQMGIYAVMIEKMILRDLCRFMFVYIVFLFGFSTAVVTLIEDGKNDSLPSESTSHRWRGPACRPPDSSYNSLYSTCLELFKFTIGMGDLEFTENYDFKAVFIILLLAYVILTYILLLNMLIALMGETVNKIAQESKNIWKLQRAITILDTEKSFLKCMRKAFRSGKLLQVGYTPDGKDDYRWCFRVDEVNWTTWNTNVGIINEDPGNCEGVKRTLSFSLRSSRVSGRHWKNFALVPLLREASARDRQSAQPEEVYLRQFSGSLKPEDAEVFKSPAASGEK", "assay": "Effect on cooperativity of Resiniferatoxin (RTX) binding (Hill coefficient)", "type": "functional"}, "[3]": {"test_system": "Rattus norvegicus", "assay": "Desensitisation against RTX-induced ear edema formation 24 hr r post-administration", "type": "functional"}, "[4]": {"target": "T1, Transient receptor potential cation channel subfamily V member 1", "assay": "Inhibition of [3H]- RTX binding to vanilloid receptor of rat urinary bladder", "type": "functional"}, "[5]": {"target": "T1, Transient receptor potential cation channel subfamily V member 1", "assay": "Inhibitory constant for RTX binding to rat spinal cord", "type": "functional"}, "[6]": {"target": "T2, Transient receptor potential cation channel subfamily V member 1", "assay": "Inhibition of [3H]- RTX binding to Vanilloid receptors from human spinal cord"}, "[7]": {"target": "T2, Transient receptor potential cation channel subfamily V member 1", "assay": "Inhibitory constant for RTX binding to human spinal cord", "type": "functional, tissue-based"}, "[8]": {"target": "T1, Transient receptor potential cation channel subfamily V member 1", "assay": "Displacement of [3H]RTX binding from Vanilloid receptor of rat dorsal Root Ganglion (DRG) membranes", "type": "cell membranes, Membrane"}, "[9]": {"assay": "The effect on the Cooperativity of Resiniferatoxin binding, as Quantitated by the Hill Coefficients."}}}
{"smiles": "Oc1cc2c(cc1O)CN(C(=S)NCCc1ccc(Cl)cc1)CCC2", "note": "[CAPSAZEPINE]", "values": [{"measurement": "Ki", "setting": "[1]", "result": 1200, "unit": "nM"}, {"measurement": "Hill coefficient", "setting": "[2]", "result": 2.4}]}
{"smiles": "COc1cc(CC(=O)OCC2=C[C@H]3[C@@H]4C(C)(C)[C@]4(OC(C)=O)[C@H](OC(=O)c4ccccc4)[C@@H](C)[C@]3(O)[C@@H]3C=C(C)C(=O)[C@@]3(O)C2)ccc1O", "values": [{"measurement": "Ki", "setting": "[1]", "result": 400, "unit": "nM"}, {"measurement": "Hill coefficient", "setting": "[2]", "result": 1.7}]}
{"smiles": "COc1cc(CC(=O)OCC2=C[C@H]3[C@@H]4C(C)(C)[C@]4(OC(C)=O)[C@H](OC(=O)CC4CCCCC4)[C@@H](C)[C@]3(O)[C@@H]3C=C(C)C(=O)[C@@]3(O)C2)ccc1O", "values": [{"measurement": "Ki", "setting": "[1]", "result": 400, "unit": "nM"}, {"measurement": "Hill coefficient", "setting": "[2]", "result": 1.1}]}
{"smiles": "COc1cc(CC(=O)OCC2=C[C@H]3[C@@H]4C(C)(C)[C@]4(OC(=O)Cc4ccccc4)C(=O)[C@@H](C)[C@]3(O)[C@@H]3C=C(C)C(=O)[C@@]3(O)C2)ccc1O", "values": [{"measurement": "Ki", "setting": "[1]", "result": 1300, "unit": "nM"}, {"measurement": "Hill coefficient", "setting": "[2]", "result": 0.9}]}
{"smiles": "COc1cc(CC(=O)OCC2=C[C@H]3[C@@H]4C(C)(C)[C@]4(OC(C)=O)[C@H](OC(=O)C4CCCCC4)[C@@H](C)[C@]3(O)[C@@H]3C=C(C)C(=O)[C@@]3(O)C2)ccc1O", "values": [{"measurement": "Ki", "setting": "[1]", "result": 2200, "unit": "nM"}, {"measurement": "Hill coefficient", "setting": "[2]", "result": 1}]}
{"smiles": "COc1cc(CC(=O)OCC2=C[C@H]3[C@@H]4C(C)(C)[C@]4(OC(C)=O)[C@H](OC(=O)Cc4ccccc4)[C@@H](C)[C@]3(O)[C@@H]3C=C(C)C(=O)[C@@]3(O)C2)ccc1O", "values": [{"measurement": "ED50", "setting": "[3]", "result": 10, "unit": "mg/kg"}, {"measurement": "Hill coefficient", "setting": "[2]", "result": 1.1}, {"measurement": "Ki", "setting": "[4]", "result": 2000, "unit": "nM"}, {"measurement": "Ki", "setting": "[5]", "result": 0.054, "unit": "nM"}, {"measurement": "Ki", "setting": "[6]", "result": 6400, "unit": "nM"}, {"measurement": "Ki", "setting": "[7]", "result": 0.45, "unit": "nM"}, {"measurement": "Ki", "setting": "[8]", "result": 600, "unit": "nM"}]}
{"smiles": "COc1cc(CC(=O)OCC2=C[C@H]3[C@@H]4C(C)(C)[C@]4(OC(=O)Cc4ccccc4)[C@H](OC(=O)Cc4ccccc4)[C@@H](C)[C@]3(O)[C@@H]3C=C(C)C(=O)[C@@]3(O)C2)ccc1O", "values": [{"measurement": "Ki", "setting": "[1]", "result": 300, "unit": "nM"}, {"measurement": "Hill coefficient", "setting": "[2]", "result": 1.3}]}
{"smiles": "C=C(C)[C@]12C[C@@H](C)[C@@]34O[C@](Cc5ccccc5)(O[C@@H]1[C@@H]3C=C(COC(=O)Cc1ccc(O)c(OC)c1)C[C@]1(O)C(=O)C(C)=CC41)O2", "note": "(single isomer, unassigned) [RESINIFERATOXIN]", "values": [{"measurement": "Ki", "setting": "[1]", "result": 0.02, "unit": "nM"}, {"measurement": "Hill coefficient", "setting": "[9]", "result": 2.3}]}
{"smiles": "COc1cc(CC(=O)OCC2=C[C@H]3[C@@H]4C(C)(C)[C@]4(OC(C)=O)C(=O)[C@@H](C)[C@]3(O)[C@@H]3C=C(C)C(=O)[C@@]3(O)C2)ccc1O", "values": [{"measurement": "Ki", "setting": "[1]", "result": "> 10000", "unit": "nM"}]}
{"smiles": "COc1cc(CC(=O)OCC2=C[C@H]3[C@@H]4C(C)(C)[C@]4(OC(C)=O)[C@H](OC(=O)Cc4ccccc4)[C@@H](C)[C@]3(O)[C@@H]3C=C(C)C(=O)[C@@]3(O)C2)ccc1OC(C)=O", "values": [{"measurement": "Ki", "setting": "[1]", "result": 1700, "unit": "nM"}, {"measurement": "Hill coefficient", "setting": "[2]", "result": 1}]}
{"smiles": "COc1cc(CC(=O)OCC2=C[C@H]3[C@@H]4C(C)(C)[C@]4(OC(C)=O)[C@H](OC(=O)Cc4ccc(N=[N+]=[N-])cc4)[C@@H](C)[C@]3(O)[C@@H]3C=C(C)C(=O)[C@@]3(O)C2)ccc1O", "values": [{"measurement": "Ki", "setting": "[1]", "result": 200, "unit": "nM"}, {"measurement": "Hill coefficient", "setting": "[2]", "result": 1.4}]}
{"smiles": "COc1cc(CNC(=O)CCCC/C=C/C(C)C)ccc1O", "values": [{"measurement": "Hill coefficient", "setting": "[2]", "result": 2}]}
{"smiles": "COc1cc(CC(=O)OCC2=C[C@H]3[C@@H]4C(C)(C)[C@]4(OC(C)=O)[C@H](OC(=O)Cc4ccccc4)[C@@H](C)[C@]3(O)[C@@H]3C=C(C)[C@H](O)[C@@]3(O)C2)ccc1O", "values": [{"measurement": "Ki", "setting": "[1]", "result": "> 10000", "unit": "nM"}]}
{"smiles": "COc1cc(CC(=O)OCC2=C[C@H]3[C@@H]4C(C)(C)[C@]4(OC(C)=O)[C@H](OC(=O)c4ccc(N=[N+]=[N-])cc4)[C@@H](C)[C@]3(O)[C@@H]3C=C(C)C(=O)[C@@]3(O)C2)ccc1O", "values": [{"measurement": "Ki", "setting": "[1]", "result": 200, "unit": "nM"}, {"measurement": "Hill coefficient", "setting": "[2]", "result": 1.5}]}
